Drawing on the supplement of paper PMC10307832, this text covers relative viability for 5 cell lines.

What all share (experiment): relative viability (nuclei count vs DMSO), 5 days (fraction); higher = more cells survive
Compound in assay [1]: CC(O)(CS(=O)(=O)c1ccc(F)cc1)C(=O)Nc1ccc(C#N)c(C(F)(F)F)c1 [Bicalutamide] + COc1cc2c(Oc3ccc(NC(=O)C4(C(=O)Nc5ccc(F)cc5)CC4)cc3F)ccnc2cc1OCCCN1CCOCC1 [Foretinib] (partner 0.25 µM)
The gist of the method: (§1)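 Lung cancer cell lines, seeded in 1536-well plates, were treated the following day by pin tool with a single drug or with five library-drug doses (not always all listed) in √10 steps on top of a fixed anchor-drug dose. Cells were fixed and nuclei stained in one step after 5 days, and nuclei were counted. Relative viability is the nuclei count for treated wells divided by that for vehicle wells, reported as medians of duplicate plates.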

Compound in assay [2]: C(C(=O)C(=O)O)Br [Bromopyruvate] + NC(=O)Nc1cc(-c2cccc(F)c2)sc1C(=O)N[C@H]1CCCNC1 [AZD7762] (partner 0.2 µM)
The procedure, abridged:
as §1

Compound in assay [3]: C(C(=O)C(=O)O)Br [Bromopyruvate] + O=C(c1cc(Cc2n[nH]c(=O)c3ccccc23)ccc1F)N1CCN(C(=O)C2CC2)CC1 [Olaparib] (partner 8 µM)
The procedure, abridged:
as §1

Compound in assay [4]: CC(O)(CS(=O)(=O)c1ccc(F)cc1)C(=O)Nc1ccc(C#N)c(C(F)(F)F)c1 [Bicalutamide] + C[C@@H](Oc1cc(-c2cnn(C3CCNCC3)c2)cnc1N)c1c(Cl)ccc(F)c1Cl [Crizotinib] (partner 1 µM)
The gist of the method: as §1

Turning to NCI-H1355, the relative viability was 1.03 in assay [1] (first compound 0.08 µM); 0.963 in assay [1] (first compound 0.253 µM); 1.1 in assay [1] (first compound 0.8 µM); 1.03 in assay [1] (first compound 2.53 µM); 0.744 in assay [2] (first compound 1 µM); 0.882 in assay [2] (first compound 3.162 µM). Moreover, the relative viability in assay [2] (first compound 10 µM) is 0.664; in assay [2] (first compound 31.62 µM), 0.737; in assay [2] (first compound 100 µM), 0.648; in assay [3] (first compound 1 µM) it was 0.738; in assay [3] (first compound 3.162 µM), 0.762; in assay [3] (first compound 10 µM), 0.681. The relative viability in assay [3] (first compound 31.62 µM) was 0.764; in assay [3] (first compound 100 µM), 0.776; in assay [4] (first compound 0.08 µM), 1.12; in assay [4] (first compound 0.253 µM) it was 0.993; in assay [4] (first compound 0.8 µM), 1.14; in assay [4] (first compound 2.53 µM) it was 1.04.

As to NCI-H1437, the relative viability in assay [1] (first compound 0.08 µM) was 1.28; in assay [1] (first compound 0.253 µM) it was 1.29; in assay [1] (first compound 0.8 µM) it was 1.24; in assay [1] (first compound 2.53 µM), 1.27; in assay [2] (first compound 1 µM), 1.15; in assay [2] (first compound 3.162 µM) it was 1.1. Also, the relative viability in assay [2] (first compound 10 µM) stood at 1.22; in assay [2] (first compound 31.62 µM), 1.12; in assay [2] (first compound 100 µM) it was 1.14; in assay [3] (first compound 1 µM), 0.647; in assay [3] (first compound 3.162 µM) it was 0.664; in assay [3] (first compound 10 µM), 0.656. Also, the relative viability in assay [3] (first compound 31.62 µM) was 0.62; in assay [3] (first compound 100 µM) it was 0.627; in assay [4] (first compound 0.08 µM) it was 0.899; in assay [4] (first compound 0.253 µM), 0.893; in assay [4] (first compound 0.8 µM) it was 0.895; in assay [4] (first compound 2.53 µM), 0.923.

As to NCI-H1651, the relative viability in assay [1] (first compound 0.08 µM) was 0.89; in assay [1] (first compound 0.253 µM), 0.734; in assay [1] (first compound 0.8 µM), 1.01; in assay [1] (first compound 2.53 µM), 0.884; in assay [2] (first compound 1 µM), 0.441; in assay [2] (first compound 3.162 µM) it was 0.491. The relative viability in assay [2] (first compound 10 µM) was found to be 0.474; in assay [2] (first compound 31.62 µM), 0.403; in assay [2] (first compound 100 µM), 0.4; in assay [3] (first compound 1 µM) it was 0.188; in assay [3] (first compound 3.162 µM) it was 0.182; in assay [3] (first compound 10 µM) it was 0.187. Further, the relative viability in assay [3] (first compound 31.62 µM) was found to be 0.207; in assay [3] (first compound 100 µM), 0.167; in assay [4] (first compound 0.08 µM), 0.868; in assay [4] (first compound 0.253 µM) it was 0.861; in assay [4] (first compound 0.8 µM) it was 0.912; in assay [4] (first compound 2.53 µM), 0.892.

With NCI-H1666, the relative viability in assay [1] (first compound 0.08 µM) is 0.927; in assay [1] (first compound 0.253 µM), 0.975; in assay [1] (first compound 0.8 µM), 0.913; in assay [1] (first compound 2.53 µM) it was 0.977; in assay [2] (first compound 1 µM), 0.966; in assay [2] (first compound 3.162 µM), 0.843. Moreover, the relative viability worked out at 0.878 in assay [2] (first compound 10 µM); 0.872 in assay [2] (first compound 31.62 µM); 0.766 in assay [2] (first compound 100 µM); 0.685 in assay [3] (first compound 1 µM); 0.733 in assay [3] (first compound 3.162 µM); 0.73 in assay [3] (first compound 10 µM). In addition, the relative viability in assay [3] (first compound 31.62 µM) was 0.707; in assay [3] (first compound 100 µM) it was 0.716; in assay [4] (first compound 0.08 µM) it was 1.13; in assay [4] (first compound 0.253 µM), 0.969; in assay [4] (first compound 0.8 µM), 1.15; in assay [4] (first compound 2.53 µM), 0.794.

In the case of NCI-H1703, the relative viability in assay [1] (first compound 0.08 µM) is 0.342; in assay [1] (first compound 0.253 µM) it was 0.36; in assay [1] (first compound 0.8 µM) it was 0.41; in assay [1] (first compound 2.53 µM), 0.293; in assay [2] (first compound 1 µM), 0.119; in assay [2] (first compound 3.162 µM), 0.124. In addition, the relative viability was determined as 0.138 in assay [2] (first compound 10 µM); 0.13 in assay [2] (first compound 31.62 µM); 0.0978 in assay [2] (first compound 100 µM); 0.648 in assay [3] (first compound 1 µM); 0.418 in assay [3] (first compound 3.162 µM); 0.335 in assay [3] (first compound 10 µM). Further, the relative viability in assay [3] (first compound 31.62 µM) amounted to 0.633; in assay [3] (first compound 100 µM), 0.502; in assay [4] (first compound 0.08 µM) it was 0.621; in assay [4] (first compound 0.253 µM) it was 0.511; in assay [4] (first compound 0.8 µM), 0.624; in assay [4] (first compound 2.53 µM) it was 0.397.
